Measured values: paper PMC10058894, “Bioactive C21 Steroidal Glycosides from Euphorbia kansui Promoted HepG2 Cell Apoptosis via the Degradation of ATP1A1 and Inhibited Macrophage Polarization under Co-Cultivation” (Molecules, 2023)
Where two headings read alike, the source gives them in different places.

Key:
Format in all cases: cell-based
[1] = MTT assay, cell viability of RAW264.7 cells; settings: mouse, half inhibitory of RAW264.7 cells
Procedure: (§1) HepG2 cells (1 × 10^4 cells/well) or RAW264.7 cells ([…]) were incubated in 96T wells for 24 h. Then, HepG2 cells were treated with compounds or Adriamycin for 48 h. In addition, RAW264.7 cells were treated with compounds for 24 h. Then, 0.5% MTT (Sigma, Saint Louis, MO, USA) was added to 20 μL/well for 3.5 h. The supernatant was discarded, and DMSO (150 μL/well) was added to dissolve the purple formazan. Cells were agitated for 15 min at room temperature, and the absorbance at 490 nm was recorded by SpetraMax M2 (Molecular Devices, San Jose, CA, USA).
(§2) RAW264.7 cells (8 × 10^4 cells/well) were incubated in 96T wells with DMEM for 24 h and then treated with compounds and LPS (1 μg/mL) for 24 h; this included the control group and LPS group. Then, the cell supernatant was collected for nitric oxide production assay. Next, 100 uL/well PBS was added to 96T wells, then 0.5% MTT (Sigma, Saint Louis, MO, USA) was added to 20 μL/well for 3.5 h. DMSO (150 μL/well) was added to dissolve the purple formazan. Cells were agitated for 15 min at room temperature, and the absorbance at 490 nm was recorded by SpetraMax M2 (Molecular Devices, San Jose, CA, USA). The NO inhibition rate (%) = (ODLPS group − ODcompound group)/(ODLPS group-ODcontrol group) × 100%. The IC50 value refers to the inhibitory of nitric oxide production of LPS-stimulated RAW264.7 cells. Then, 70 uL of each cell supernatant sample was added into a new 96T plate, and Griess A and Griess B were added separately. Then, the absorbance value at 540 nm was detected and then brought into the standard curve to assay the concentration of NO. The cell survival rate (%) = (ODcompound group − ODblank group)/(ODcontrol group − ODblank group) × 100%. The half concentration of the cell death (CC50) value refers to the concentration of compound 5 when 50% of RAW264.7 cells die. The iNOS inhibitor ([…], L-NMMA) was selected as the positive control. The levels of cytokines (IL-1β, IFN-γ, IL-10, TNF-α, and IL-6) in the cell supernatant were determined using an ELISA kit (Novus Biologicals, Shanghai, China, Lot: 834472, 770118, 772051, 486956, 602865). When the process was conducted according to the manufacturer’s instructions, the absorbance was read at 450 nm/570 nm in a SpectraMax 340PC microplate spectrophotometer (Molecular Devices, San Jose, CA, USA).

[2] = system: NO production of LPS-stimulated RAW264.7 cells; assay: Nitric oxide production in LPS-stimulated RAW264.7 cells (Griess); settings: LPS (1 μg/mL)-stimulated RAW264.7 cells, 24 h, read-out: RAW264.7 IC50 (inhibition of nitric oxide production)
Procedure: as §2

HepG2 cells = assay: MTT assay, cell viability of HepG2 cells
Procedure: as §1

RAW264.7 cells = assay: MTT assay, cell viability of RAW264.7 cells; settings: half inhibitory of RAW264.7 cells, 24 h
Procedure: as §1, §2

ATP1A1 = ATP1A1 (Homo sapiens, UniProt P05023); assay: ATP1A1 level and location in HepG2 cells (western blot, fluorescence staining, lysosomal colocalization); design: we focused on the regulatory effect of 5 on ATP1A1 in HepG2 cells; endogenous in cells; host or cells: HepG2; settings: HepG2; 5 25 μmol∙L−1, digitonin 10, MK 2206 40, FR 180204 200 nmol∙L−1; western blot
Procedure: HepG2 cells (4 × 10^5 cells/well) were incubated in confocal dishes with DMEM for 24 h and then treated with compounds for 48 h. Then, the cells were treated with 0.1% Triton X-100 for 10 min and washed with PBS five times. Finally, the cells were dyed with anti-ATP1A1 at 4 °C overnight. Nuclear staining with DAPI (1 μg∙mL^−1) was added for 7 min in the dark, and the cells were washed. The stained images were captured under a laser scanning confocal microscope (Nikon A1 AIR MP+, Tokyo, Japan). HepG2 cells (5 × 10^5 cells/well) were incubated in 6-well plates in complete DMEM. Cells were treated with compounds for 24 h. Then, the cells were stained with Annexin V/PI for 30 min at 4 °C in the dark, and apoptosis analysis was carried out by laser scanning confocal microscopy.
Protein samples were prepared using a RIPA lysis buffer. The concentration of the protein was analyzed using a nucleic acid and protein microanalyzer (Molecular Devices, San Jose, CA, USA). SDS–PAGE was performed to separate the proteins, which were then electrotransferred onto a PVDF membrane. The membrane was incubated with antibodies at 4 °C overnight. Next, the membrane was washed and incubated with an HRP-conjugated secondary antibody (Beyotime, BeiJing, China). Finally, signals were detected by the ECL method (Beyotime, BeiJing, China) and analyzed using ImageJ software.

Huh-7 cells = assay: MTT assay, cell viability of Huh-7 cells; settings: Homo sapiens, Huh-7; MTT; read-out: Huh-7 IC50
Description: 2. The anti-proliferation of compound 5 on Huh-7 cells
We tested another hepatoma cell line (Huh-7) to validate effect of compound 5. L02 (normal hepatocytes), HepG2 and Hub-7 cells were used to discuss the effect of 5. […]
of 5 on Huh-7 cell was (24.49±[…]) μM (Table S1). The morphology and apoptosis of the cells by reversed microscope and flow cytometry, respectively.
Second, the expression and phosphorylation of ATP1A1 were detected by Western blot analysis in L02, HepG2 and Huh-7 cells. Compared with L02 group, the expression of ATP1A1 was higher in HepG2 and Huh-7 cells, but there was no significant difference in the phosphorylation of ATP1A1 (Figure […]
At last, the effect of 5 on the expression and the phosphorylation of ATP1A1 in Huh-7 cells was […]
the phosphorylation of ATP1A1. The result was consistent with that observed in HepG2 cells (Figure […]
Table S1 Cell viability of Huh-7 cell treated by compound 5

Row | Compound | IC50 (HepG2 cells; 48 h) [µM] | CC50 (RAW264.7 cells) [µM] | IC50 [2] [µM] | further results
1 | [H]/N=C(/NC)NCCC[C@H](N)C(=O)O [L-NMMA, NG-monnomycin-L-arginine, reference compound] | – | – | – | CC50 at 24 h [1]: > 50 µM; IC50 ([2]; Mus musculus): 21.2 ± 3.26 µM
2 | Cynotophylloside B [Compound 2] | 41.1 ± 6.05 | > 50 | 9.1 ± 2.27 | –
3 | CC(=O)[C@]1(O)CC[C@@]2(O)[C@]1(C)[C@H](O)C[C@@H]1[C@@]3(C)CC[C@H](O)CC3=CC[C@]12O [Compound 3, Deacylmetaplexigenin] | > 50 | > 50 | > 50 | –
4 | Nc1[nH]nc2nnc(-c3c(-c4ccccc4)nn4ccccc34)cc12 [FR 180204, reference compound] | – | – | – | expression of ATP1A1 (comparison with inhibitors) (ATP1A1): not similarly observed
5 | Eupokanu G [Compound 1] | 46.4 ± 3.09 | > 50 | > 50 | –
6 | C[C@@H]1CC[C@@]2(OC1)O[C@H]1[C@@H](O)[C@H]3[C@@H]4CC[C@H]5C[C@@H](O[C@@H]6O[C@H](CO)[C@H](O[C@@H]7O[C@H](CO)[C@@H](O)[C@H](O[C@@H]8OC[C@@H](O)[C@H](O)[C@H]8O)[C@H]7O[C@@H]7O[C@H](CO)[C@H](O)[C@H](O[C@@H]8O[C@H](CO)[C@@H](O)[C@H](O)[C@H]8O)[C@H]7O)[C@H](O)[C@H]6O)[C@H](O)C[C@]5(C)[C@H]4CC[C@]3(C)[C@H]1[C@@H]2C [digitonin, reference compound] | – | – | – | expression of ATP1A1 (comparison with inhibitors) (ATP1A1): not similarly observed
7 | Kidjoranin 3-O-α-diginopyranosyl-(1→4)-β-cymaropyranoside [Compound 10] | 22.7 ± 4.02 | 24.1 ± 3.24 | 2.78 ± 0.44 | –
8 | CC(=O)[C@]1(O)CC[C@@]2(O)[C@]1(C)[C@H](OC(=O)/C=C/c1ccccc1)C[C@@H]1[C@@]3(C)CC[C@H](O)CC3=CC[C@]12O [Compound 4, Kidjolanin] | > 50 | > 50 | 30.7 ± 4.08 | –
9 | Caudatin 3-O-β-D-digitoxopyranoside [Compound 12] | > 50 | > 50 | > 50 | –
10 | NC1(c2ccc(-c3nc4ccn5c(=O)[nH]nc5c4cc3-c3ccccc3)cc2)CCC1 [MK 2206, reference compound] | – | – | – | expression of ATP1A1 (comparison with inhibitors) (ATP1A1): not similarly observed
11 | CO[C@H]1C[C@@H](O[C@H]2[C@H](C)O[C@H](O[C@H]3[C@@H](C)O[C@H](O[C@H]4[C@@H](OC)C[C@H](O[C@@H]5CC[C@]6(C)C(=CCC(=O)[C@H]6C[C@H](OC(=O)/C=C/c6ccccc6)[C@]6(C)C(=O)CC[C@]6(O)[C@@H](C)OC(C)=O)C5)O[C@@H]4C)C[C@H]3OC)C[C@H]2OC)O[C@H](C)[C@H]1O [Compound 7, Wilfoside G] | 12.6 ± 2.98 | 26.2 ± 2.22 | 1.77 ± 0.34 | –
12 | Cynotophylloside J [Compound 8] | > 50 | > 50 | 17.4 ± 3.01 | –
13 | Kidjoranin 3-O-β-digitoxopyranoside [Compound 11] | > 50 | > 50 | > 50 | –
14 | Kidjoranin-3-O-β-D-cymaropyranoside [Compound 6] | 27.3 ± 3.48 | 35.2 ± 5.12 | 3.32 ± 0.43 | –
15 | CC1(C)CC[C@]2(C(=O)O)CC[C@]3(C)C(=CC[C@@H]4[C@@]5(C)C[C@@H](O)[C@H](O)C(C)(C)[C@@H]5CC[C@]43C)[C@@H]2C1 [Compound 9, Maslinic acid] | – | – | – | IC50 (HepG2 cells; Homo sapiens, HepG2, 48 h): > 50 µM; CC50 at 24 h [1]: > 50 µM; IC50 ([2]; Mus musculus): 17.4 ± 2.21 µM
16 | COc1cccc2c1C(=O)c1c(O)c3c(c(O)c1C2=O)C[C@@](O)(C(=O)CO)C[C@@H]3O[C@H]1C[C@H](N)[C@H](O)[C@H](C)O1 [Adr, adriamycin, reference compound] | – | – | – | IC50 (HepG2 cells; Homo sapiens, HepG2, 48 h): 6.93 ± 1.23 µM; IC50 (HepG2 cells; Homo sapiens, HepG2, fractions A–E, 48 h): 5.98 ± 2.06 µg/mL; IC50 (Huh-7 cells): 4.49 ± 0.96 µM
